The subject of data set [1] is Candida glabrata. In words: In vitro broth dilution MIC, Candida glabrata. The format is cell-based. The conditions noted are these: 9 strains; for MIC90: Nakaseomyces glabratus, read-out: MIC 90 (Minimum Inhibitory Concentrations for 90% of the strains). (In general: Broth dilution looks for growth in wells or tubes with falling amounts of substance.)
Experimental: (§1) The in vitro antifungal activity tests were performed via conventional broth dilution methods in Sabouraud dextrose broth ("SDB") medium and Eagles Minimum Essential Medium ("EMEM") against a large number of fungi. Minimum Inhibitory Concentrations ("MICs") were measured after 24, 48 and 72 hour tests. In many cases, Minimum Fungicidial Concentrations ("MFCS") were measured after 48 and 72 hours.
Data set [2] relates to Aspergillus. The data set is described as follows: In vitro broth dilution MIC, Aspergillus. The format is cell-based, Aspergillus flavus, fumigatus and other species. The following applies: for MIC90: read-out: MIC 90 (Minimum Inhibitory Concentrations for 90% of the strains).
Experimental: as §1
Data set [3] has as its system Dermatophytes. In words: In vitro broth dilution MFC, dermatophytes. The following applies: 6 strains. The format is cell-based, T. rubrum, T. mentagrophytes, and T. tonsurans.
Experimental: as §1
Data set [4] deals with Candida krusei. The data set is described as follows: In vitro broth dilution MFC, Candida krusei. Type of data set: cell-based. The following applies: 16 strains.
Experimental: as §1
Data set [5] deals with Cryptococcus neoformans. In words: In vitro broth dilution MIC, Cryptococcus neoformans. Type of data set: cell-based. The following applies: 3 strains.
Experimental: as §1
Data set [6] relates to Aspergillus. In words: In vitro broth dilution MFC, Aspergillus. The format is cell-based, Aspergillus flavus, fumigatus and other species. The following applies: 37 strains.
Experimental: as §1
For data set [7], the system named is Candida albicans. The data set is described as follows: In vitro broth dilution MIC, Candida albicans. The format is cell-based. The conditions noted are these: 26 strains; for MIC90: read-out: MIC 90 (Minimum Inhibitory Concentrations for 90% of the strains).
Experimental: as §1
Data set [8] relates to Candida krusei. The data set is described as follows: In vitro broth dilution MIC, Candida krusei. Type of data set: cell-based. The following applies: 16 strains.
The test system of data set [9] is Candida tropicalis & stellatoidea. The following applies: 5 strains.
Experimental: as §1
For data set [10] the test system is unchanged. The data set is described as follows: In vitro broth dilution MIC, Candida tropicalis & stellatoidea. The format is cell-based. The following applies: 5 strains.
Experimental: as §1
The subject of data set [11] is Cryptococcus neoformans. The data set is described as follows: In vitro broth dilution MFC, Cryptococcus neoformans. The format is cell-based. The conditions noted are these: 3 strains.
Experimental: as §1
For data set [12], the system named is Dermatophytes. In words: In vitro broth dilution MIC, dermatophytes. The following applies: 6 strains. The format is cell-based, T. rubrum, T. mentagrophytes, and T. tonsurans.
Data set [13] concerns Candida albicans. The following applies: 26 strains.
Experimental: as §1
Data set [14] deals with Candida glabrata. In words: In vitro broth dilution MFC, Candida glabrata. The format is cell-based. The following applies: 9 strains.
Experimental: as §1
The test system of data set [15] is cytochrome P-450 liver drug metabolizing enzymes. In words: Induction of cytochrome P-450 liver drug metabolizing enzymes in an in vivo rat model. The following applies: after oral administration.
The nature of data set [16]: Serum levels, serum half lives and tissue distribution following oral dosing. Type of data set: in vivo, mice, rats, dogs and monkeys.

Structures are written as SMILES. Converted amounts (≈) assume the structure as drawn.

In the case of `CC[C@H]([C@H](C)O)n1ncn(-c2ccc(N3CCN(c4ccc(OC[C@@H]5CO[C@@](Cn6cncn6)(c6ccc(F)cc6F)C5)cc4)CC3)cc2)c1=O`, the MIC90 with Candida glabrata [1] was 28.8 µg/mL (≈ 41.1 µM); in the data set with Aspergillus [2] (Aspergillus, 37 strains), 0.122 µg/mL (≈ 0.174 µM); in the data set with Candida albicans [7] it was 0.274 µg/mL (≈ 0.391 µM). Further, the figures for the “Percentage of strains with MFCs ≤1 mcg/ml” value in the data set with Dermatophytes [3], with Candida krusei [4] and in the data set on Aspergillus [6] were 67 PERCENTAGE, 88 PERCENTAGE and 50 PERCENTAGE, respectively. The “MIC 90 (Minimum Inhibitory Concentrations for 90% of the strains)” value in the data set with Cryptococcus neoformans [5] is reported as “.05 MCG/ML”.
As to `OC(Cn1cncn1)(Cn1cncn1)c1ccc(F)cc1F` [FLZ, fluconazole], the “Percentage of strains with MICs ≤1 mcg/ml” value was 0 PERCENTAGE in the data set with Candida krusei [8]; 0 PERCENTAGE in the data set with Candida glabrata [1]; 100 PERCENTAGE in data set [10]; 0 PERCENTAGE in the data set on Aspergillus [2] (Aspergillus, 37 strains); 100 PERCENTAGE in the data set with Dermatophytes [12]; 0 PERCENTAGE in the data set with Cryptococcus neoformans [5]. Moreover, the “Percentage of strains with MICs ≤1 mcg/ml” value in the data set on Candida albicans [7] is listed as 100 PERCENTAGE. Besides, the MIC90 in the data set with Candida krusei [8] (Pichia kudriavzevii, read-out: MIC 90 (Minimum Inhibitory Concentrations for 90% of the strains)) worked out at 29.9 µg/mL (≈ 97.6 µM); in the data set on Candida glabrata [1], 29.3 µg/mL (≈ 95.7 µM); in [10] (Candida tropicalis, read-out: MIC 90 (Minimum Inhibitory Concentrations for 90% of the strains)) it was 0.917 µg/mL (≈ 2.99 µM); with Aspergillus [2] (Aspergillus, 37 strains), 29.9 µg/mL (≈ 97.6 µM); in the data set on Cryptococcus neoformans [5] (read-out: MIC 90 (Minimum Inhibitory Concentrations for 90% of the strains)) it was 25.9 µg/mL (≈ 84.6 µM); with Candida albicans [7] it was 0.887 µg/mL (≈ 2.9 µM). Moreover, the “Percentage of strains with MFCs ≤1 mcg/ml” value in data set [9] is 100 PERCENTAGE; in the data set on Cryptococcus neoformans [11], 0 PERCENTAGE; with Dermatophytes [3] it was 0 PERCENTAGE; in the data set on Candida krusei [4], 0 PERCENTAGE; in the data set on Candida albicans [13], 100 PERCENTAGE; in the data set on Candida glabrata [14] it was 0 PERCENTAGE. Also, the “Percentage of strains with MFCs ≤1 mcg/ml” value with Aspergillus [6] was 0 PERCENTAGE. Moreover, the MIC in the data set with Aspergillus [2] (SDB, 37 species of Aspergillus, read-out: geometric mean MICs) was not below 32 µg/mL.
For `CCC(C(C)O)n1ncn(-c2ccc(N3CCN(c4ccc(OCC5COC(Cn6cncn6)(c6ccc(F)cc6F)C5)cc4)CC3)cc2)c1=O` (centres unmarked) [drawing 21], the “induction of various cytochrome P-450 liver drug metabolizing enzymes” value in data set [15] is on record as “not inducers”. Moreover, in data set [16] (following O.D. dosing), the serum half lives entry is reported as “very long serum half lives”. The “serum levels compared to azoles of similar structure” value in data set [16] (mice, rats, dogs and monkeys, oral dosing with a methyl cellulose formulation) is recorded as “consistently higher serum levels”.
As for `CCC(C(C)O)n1ncn(-c2ccc(N3CCN(c4ccc(OCC5COC(Cn6cncn6)(c6ccc(F)cc6F)C5)cc4)CC3)cc2)c1=O` (centres unmarked) [drawing 23], the “Percentage of strains with MFCs ≤1 mcg/ml” value was 83 PERCENTAGE in the data set on Dermatophytes [3], 94 PERCENTAGE with Candida krusei [4] and 62 PERCENTAGE with Aspergillus [6]. Besides, the “MIC 90 (Minimum Inhibitory Concentrations for 90% of the strains)” value in the data set with Cryptococcus neoformans [5] was “.007 MCG/ML”.
Consider `CCC(C(C)O)n1ncn(-c2ccc(N3CCN(c4ccc(OCC5COC(Cn6cncn6)(c6ccc(F)cc6F)C5)cc4)CC3)cc2)c1=O` (centres unmarked) [drawing 24], for which the “Percentage of strains with MFCs ≤1 mcg/ml” value in the data set with Dermatophytes [3] is 100 PERCENTAGE; with Candida krusei [4] it was 100 PERCENTAGE; with Aspergillus [6], 89 PERCENTAGE.

These data come from patent US5661151A, “Tetrahydrofuran antifungals” (Schering Corporation, priority 1995, dated 1997).
